Laboratory results: the NIST ThermoML archive (doi:10.1016/j.jct.2015.09.028)
± gives the expanded uncertainty stated by the source.

Tests used:
[1] = molar heat capacity at constant pressure; xn = mol fraction of the nth substance listed; conditions: Liquid, Flow calorimetry
[2] = xn = mol fraction of the nth substance listed; conditions: 93 kPa, Liquid; for viscosity: Concentric cylinders viscometry; for mass density: Vibrating tube method

c1ccc(Oc2ccccc2)cc1 [diphenyl ether] + c1ccc(-c2ccccc2)cc1
molar heat capacity at constant pressure [J/K/mol], [1]
Conditions | 100 kPa | 5000 kPa | 10000 kPa | 15000 kPa | 20000 kPa | 25000 kPa
293.15 K, x1 = 0.705 | 260.48 ± 5.3 | 258.49 ± 5.1 | 256.34 ± 5.1 | 255.18 ± 5.1 | 253.86 ± 5.1 | 252.7 ± 5.1
313.15 K, x1 = 0.55 | 273.53 ± 5.5 | 272.22 ± 5.4 | 270.76 ± 5.4 | 269.94 ± 5.4 | 269.29 ± 5.4 | 268.96 ± 5.4
313.15 K, x1 = 0.705 | 270.74 ± 5.5 | 269.58 ± 5.5 | 267.76 ± 5.3 | 267.1 ± 5.3 | 265.94 ± 5.3 | 265.11 ± 5.3
313.15 K, x1 = 0.85 | 272.02 ± 5.5 | 270.67 ± 5.4 | 270.17 ± 5.4 | 269.67 ± 5.4 | 269.5 ± 5.4 | 269.33 ± 5.4
313.15 K, x1 = 1 | 274.37 ± 5.4 | 273.52 ± 5.4 | 273.18 ± 5.4 | 272.5 ± 5.4 | 272.16 ± 5.4 | –
333.15 K, x1 = 0.55 | 285.75 ± 5.7 | 284.45 ± 5.7 | 284.29 ± 5.7 | 283.96 ± 5.7 | 283.8 ± 5.7 | –
333.15 K, x1 = 0.705 | 279.34 ± 5.6 | 278.02 ± 5.6 | 276.86 ± 5.6 | 275.54 ± 5.5 | 274.21 ± 5.5 | 273.39 ± 5.5
333.15 K, x1 = 0.85 | 285.1 ± 5.7 | 284.6 ± 5.7 | 284.27 ± 5.7 | 284.1 ± 5.7 | 283.76 ± 5.7 | 283.43 ± 5.7
333.15 K, x1 = 1 | 286.97 ± 5.8 | 285.95 ± 5.8 | 284.93 ± 5.8 | 284.59 ± 5.8 | 283.39 ± 5.6 | 282.71 ± 5.6
353.15 K, x1 = 0.55 | 295.7 ± 5.9 | 294.88 ± 5.9 | 294.55 ± 5.9 | 294.39 ± 5.9 | 293.25 ± 5.9 | 293.09 ± 5.9
353.15 K, x1 = 0.705 | 290.93 ± 5.8 | 289.27 ± 5.8 | 287.62 ± 5.8 | 286.96 ± 5.8 | 285.47 ± 5.8 | 283.98 ± 5.6
353.15 K, x1 = 0.85 | 299.2 ± 6 | 297.86 ± 6 | 297.69 ± 6 | 297.35 ± 6 | 297.19 ± 6 | 296.68 ± 5.9
353.15 K, x1 = 1 | 299.05 ± 6 | 298.03 ± 6 | 296.84 ± 6 | 296.33 ± 6 | 295.48 ± 6 | 294.63 ± 6

[2]
Conditions | mass density, x1 = 0.55 [kg/m3] | mass density, x1 = 0.705 [kg/m3] | mass density, x1 = 0.85 [kg/m3] | mass density, x1 = 1 [kg/m3] | viscosity, x1 = 0.55 [mPa·s] | viscosity, x1 = 0.705 [mPa·s] | viscosity, x1 = 0.85 [mPa·s] | viscosity, x1 = 1 [mPa·s]
288.15 K | – | 1066.7 ± 1 | – | – | – | 5.12 ± 0.1 | – | –
293.15 K | – | 1062.4 ± 1 | – | – | – | 4.39 ± 0.09 | – | –
298.15 K | – | 1058.2 ± 1 | 1064.2 ± 1 | – | – | 3.81 ± 0.08 | 3.8 ± 0.08 | –
303.15 K | – | 1053.9 ± 1 | 1060 ± 1 | 1065.5 ± 1 | – | 3.34 ± 0.07 | 3.34 ± 0.07 | 3.33 ± 0.07
308.15 K | 1043.7 ± 1 | 1049.7 ± 1 | 1055.7 ± 1 | 1061.2 ± 1 | 2.99 ± 0.06 | 2.96 ± 0.06 | 2.96 ± 0.06 | 2.96 ± 0.06
313.15 K | 1039.5 ± 1 | 1045.4 ± 1 | 1051.3 ± 1 | 1056.9 ± 1 | 2.7 ± 0.06 | 2.64 ± 0.05 | 2.65 ± 0.05 | 2.65 ± 0.05
323.15 K | 1031.1 ± 1 | 1037 ± 1 | 1042.7 ± 1 | 1048.2 ± 1 | 2.15 ± 0.04 | 2.15 ± 0.04 | 2.16 ± 0.04 | 2.17 ± 0.04
333.15 K | 1022.6 ± 1 | 1028.5 ± 1 | 1034.1 ± 1 | 1039.6 ± 1 | 1.79 ± 0.04 | 1.79 ± 0.04 | 1.81 ± 0.04 | 1.82 ± 0.04
343.15 K | 1014.1 ± 1 | 1020 ± 1 | 1025.5 ± 1 | 1030.9 ± 1 | 1.52 ± 0.03 | 1.52 ± 0.03 | 1.54 ± 0.03 | 1.54 ± 0.03
353.15 K | 1005.6 ± 1 | 1011.5 ± 1 | 1016.9 ± 1 | 1022.3 ± 1 | 1.31 ± 0.03 | 1.31 ± 0.03 | 1.32 ± 0.03 | 1.33 ± 0.03
363.15 K | 997.5 ± 1 | 1003 ± 1 | 1008.3 ± 1 | 1013.7 ± 1 | 1.14 ± 0.02 | 1.14 ± 0.02 | 1.15 ± 0.02 | 1.16 ± 0.02
373.15 K | 989.2 ± 1 | 994.9 ± 1 | 999.8 ± 1 | 1005.2 ± 1 | 1 ± 0.02 | 1.01 ± 0.02 | 1.01 ± 0.02 | 1.03 ± 0.02
